The values below are quoted from earlier work in patent US9358223B2, “Formulation for preventing or reducing bleeding at a surgical site” (WARSAW ORTHOPEDIC, INC., priority 2009, dated 2016).

In this data set the test system is blood pressure. The conditions noted are these: perioperative period, patients undergoing rhytidectomy.

Regarding `Clc1cccc(Cl)c1N=C1NCCN1` [Clonidine, 2,6-dichloro-N-2-imidazolidinyldenebenzenamine], the “regulation of blood pressure” value is “effectively regulate blood pressure”.
